Measurements: US11524938B2, “Aromatic sulfonamide derivatives” (Bayer Pharma Aktiengesellschaft, priority 2016, dated 2022)
Values joined by “and” are separate entries in the source; they are usually repeats but may differ in a detail not shown here. Identical values can stand only once.

Molecular target: T1, human P2X4 (Homo sapiens, UniProt Q99571)
T1 sequence (Q99571 1-388): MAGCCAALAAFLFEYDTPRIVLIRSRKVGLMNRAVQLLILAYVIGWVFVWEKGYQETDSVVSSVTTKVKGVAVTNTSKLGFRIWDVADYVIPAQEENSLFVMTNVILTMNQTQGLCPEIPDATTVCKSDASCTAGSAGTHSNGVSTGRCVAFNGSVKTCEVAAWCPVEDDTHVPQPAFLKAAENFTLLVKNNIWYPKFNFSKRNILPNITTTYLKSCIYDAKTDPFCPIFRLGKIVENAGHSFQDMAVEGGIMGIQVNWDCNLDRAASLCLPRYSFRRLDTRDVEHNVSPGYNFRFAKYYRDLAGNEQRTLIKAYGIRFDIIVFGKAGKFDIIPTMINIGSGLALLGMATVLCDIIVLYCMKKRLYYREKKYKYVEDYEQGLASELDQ
Assay: Human P2X4 HEK Cell FLIPR Assay
Type: cell-based
Details: agonist Bz-ATP at EC80; for Emax: HEK293, HEK293 cells, percentage of maximal inhibition, read-out: Human P2X4 HEK Cells (FLIPR Assay) avg Efficacy [%]; for IC50: HEK293 cells, individual values listed where some fall outside detection range
Summary of the method: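 Calcium flux read by FLIPR for 120 sec after Bz-ATP challenge at EC80 (established each assay day), following 30 min room-temperature compound preincubation in dye-loaded stable human P2X4 HEK293 cells. Peak RFU over basal normalized to agonist control; IC50, maximal inhibition and Hill coefficient from triplicate means.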

| Emax | IC50 | Compound |
| --- | --- | --- |
| 87% | 0.022 µM | NS(=O)(=O)c1cc(NC(=O)Cc2ccccc2Cl)ccc1-c1ccns1 [Example 496, 2-(2-Chlorophenyl)-N-[3-sulfamoyl-4-(1,2-thiazol-5-yl)phenyl]acetamide] |
| 97% | 0.054 µM | CN(C(=O)c1cnn(-c2ccc(NC(=O)Cc3ccccc3Cl)cc2S(N)(=O)=O)c1)C1CC1 [Example 497, 1-(4-{[(2-Chlorophenyl)acetyl]amino}-2-sulfamoylphenyl)-N-cyclopropyl-N-methyl-1H-pyrazole-4-carboxamide] |
| 50% | 18.2 µM and > 25 µM | NS(=O)(=O)c1cc(NC(=O)C(O)c2ccccc2Cl)ccc1-n1cc(C(F)(F)F)cn1 (stereo not shown) [Example 498, 2-(2-Chlorophenyl)-2-hydroxy-N-{3-sulfamoyl-4-[4-(trifluoromethyl)-1H-pyrazol-1-yl]phenyl}ethanamide] |
| 69% | 0.347 µM | NS(=O)(=O)c1cc(NC(=O)Cc2ccccc2Cl)cc(Cl)c1-n1cc(C(F)(F)F)cn1 [Example 499, 2-(2-Chlorophenyl)-N-{3-chloro-5-sulfamoyl-4-[4-(trifluoromethyl)-1H-pyrazol-1-yl]phenyl}acetamide] |
| 40% | > 25 µM | N#Cc1cn(-c2ccc(NC(=O)Cc3ccccc3Cl)cc2S(N)(=O)=O)nc1O [Example 500, 2-(2-Chlorophenyl)-N-[4-(4-cyano-3-hydroxy-1H-pyrazol-1-yl)-3-sulfamoylphenyl]acetamide] |
| 92% | 0.003 µM | NS(=O)(=O)c1cc(NC(=O)Cc2ccccc2Cl)ccc1-n1ncc2cnccc21 [Example 501, 2-(2-Chlorophenyl)-N-[4-(1H-pyrazolo[4,3-c]pyridin-1-yl)-3-sulfamoylphenyl]acetamide] |
| 49% | 13.8 µM | Cc1nc(-c2ccc(NC(=O)Cc3ccccc3Cl)cc2S(N)(=O)=O)sc1C [Example 502, 2-(2-Chlorophenyl)-N-[4-(4,5-dimethyl-1,3-thiazol-2-yl)-3-sulfamoylphenyl]acetamide] |
| 102% | 0.047 µM | Cc1nc(C)c(-c2ccc(NC(=O)Cc3ccccc3Cl)cc2S(N)(=O)=O)s1 [Example 503, 2-(2-Chlorophenyl)-N-[4-(2,4-dimethyl-1,3-thiazol-5-yl)-3-sulfamoylphenyl]acetamide] |
| 98% | 0.033 µM | Cc1ncsc1-c1ccc(NC(=O)Cc2ccccc2Cl)cc1S(N)(=O)=O [Example 504, 2-(2-Chlorophenyl)-N-[4-(4-methyl-1,3-thiazol-5-yl)-3-sulfamoylphenyl]acetamide] |
| 93% | 0.131 µM | Nc1cnn(-c2ccc(NC(=O)Cc3ccccc3Cl)cc2S(N)(=O)=O)c1 [Example 505] |
| 91% | 0.391 µM | NS(=O)(=O)c1cc(NC(=O)Cc2ccccc2Cl)ccc1-n1cc(NC(=O)C(F)F)cn1 [Example 506, N-[1-(4-{[(2-Chlorophenyl)acetyl]amino}-2-sulfamoylphenyl)-1H-pyrazol-4-yl]-2,2-difluoroacetamide] |
| 86% | 0.18 µM | NS(=O)(=O)c1cc(NC(=O)Cc2ccccc2Cl)ccc1-n1cc(NC(=O)CC(F)(F)F)cn1 [Example 507, N-[1-(4-{[(2-Chlorophenyl)acetyl]amino}-2-sulfamoylphenyl)-1H-pyrazol-4-yl]-3,3,3-trifluoropropanamide] |
| 60% | 0.343 µM | C[C@@H]1CC[C@H](C)N1c1cnn(-c2ccc(NC(=O)Cc3ccccc3Cl)cc2S(N)(=O)=O)c1 [Example 511, 2-(2-Chlorophenyl)-N-(4-{4-[(cis)-2,5-dimethylpyrrolidin-1-yl]-1H-pyrazol-1-yl}-3-sulfamoylphenyl)acetamide] |
| 102% | 0.106 µM | NS(=O)(=O)c1cc(NC(=O)Cc2ccccc2F)ccc1-n1cc(NCC(F)F)cn1 [Example 514, N-(4-{4-[(2,2-Difluoroethyl)amino]-1H-pyrazol-1-yl}-3-sulfamoylphenyl)-2-(2-fluorophenyl)acetamide] |
| 101% | 0.045 µM | NS(=O)(=O)c1cc(NC(=O)Cc2ccccc2Cl)ccc1-n1cc(NCC(F)(F)F)cn1 [Example 515, 2-(2-Chlorophenyl)-N-(3-sulfamoyl-4-{4-[(2,2,2-trifluoroethyl)amino]-1H-pyrazol-1-yl}phenyl)acetamide] |
| 68% | 0.096 µM | CC(C)c1cnn(-c2ccc(NC(=O)Cc3ccccc3Cl)cc2S(N)(=O)=O)c1 [Example 516, 2-(2-Chlorophenyl)-N-[4-(4-isopropyl-1H-pyrazol-1-yl)-3-sulfamoylphenyl]acetamide] |
| 74% | 0.187 µM | CC(C)c1cnn(-c2ccc(NC(=O)Cc3ccccc3F)cc2S(N)(=O)=O)c1 [Example 517, 2-(2-Fluorophenyl)-N-[4-(4-isopropyl-1H-pyrazol-1-yl)-3-sulfamoylphenyl]acetamide] |
| 80% | 0.036 µM | NS(=O)(=O)c1cc(NC(=O)Cc2ccccc2Cl)ccc1-n1cc(CC(F)(F)F)cn1 [Example 518, 2-(2-Chlorophenyl)-N-{3-sulfamoyl-4-[4-(2,2,2-trifluoroethyl)-1H-pyrazol-1-yl]phenyl}acetamide] |
| 82% | 0.105 µM | NS(=O)(=O)c1cc(NC(=O)Cc2ccccc2F)ccc1-n1cc(CC(F)(F)F)cn1 [Example 519, 2-(2-Fluorophenyl)-N-{3-sulfamoyl-4-[4-(2,2,2-trifluoroethyl)-1H-pyrazol-1-yl]phenyl}acetamide] |
| 76% | 0.043 µM | NS(=O)(=O)c1cc(NC(=O)Cc2ccccc2Cl)ccc1-c1noc(C2CC2)n1 [Example 520, 2-(2-Chlorophenyl)-N-[4-(5-cyclopropyl-1,2,4-oxadiazol-3-yl)-3-sulfamoylphenyl]acetamide] |
| 52% | 6.9 µM and 17.2 µM and > 25 µM (4×) | NS(=O)(=O)c1cc(NC(=O)Cc2ccccc2Cl)ccc1-c1nc(C(F)(F)F)no1 [Example 521, 2-(2-Chlorophenyl)-N-{3-sulfamoyl-4-[3-(trifluoromethyl)-1,2,4-oxadiazol-5-yl]phenyl}acetamide] |
| 87% | 0.071 µM | NS(=O)(=O)c1cc(NC(=O)Cc2ccccc2Cl)ccc1-c1nnc(C(F)F)o1 [Example 522, 2-(2-Chlorophenyl)-N-{4-[5-(difluoromethyl)-1,3,4-oxadiazol-2-yl]-3-sulfamoylphenyl}acetamide] |
| 89% | 0.149 µM | NS(=O)(=O)c1cc(NC(=O)Cc2ccccc2F)ccc1-c1nnc(C(F)F)o1 [Example 523, N-{4-[5-(Difluoromethyl)-1,3,4-oxadiazol-2-yl]-3-sulfamoylphenyl}-2-(2-fluorophenyl)acetamide] |
| 87% | 0.322 µM | Cc1nnc(-c2ccc(NC(=O)Cc3ccccc3Cl)cc2S(N)(=O)=O)o1 [Example 524, 2-(2-Chlorophenyl)-N-[4-(5-methyl-1,3,4-oxadiazol-2-yl)-3-sulfamoylphenyl]acetamide] |
| 72% | 5.17 µM | Cc1nnc(-c2ccc(NC(=O)Cc3ccccc3F)cc2S(N)(=O)=O)o1 [Example 525, 2-(2-Fluorophenyl)-N-[4-(5-methyl-1,3,4-oxadiazol-2-yl)-3-sulfamoylphenyl]acetamide] |
| 51% | 0.331 µM | Cc1ccc(CC(=O)Nc2ccc(-c3nnc(C)o3)c(S(N)(=O)=O)c2)cc1 [Example 526, N-[4-(5-Methyl-1,3,4-oxadiazol-2-yl)-3-sulfamoylphenyl]-2-(4-methylphenyl)acetamide] |
